pEC50: −log10 of the molar value.
Legend:
[1] = test system: asexual-stage P. falciparum; assay: Antimalarial activity on asexual-stage P. falciparum in human blood (parasitemia, Giemsa smears); assay type: cell-based, Plasmodium falciparum NF54; details: day 4, 0.5% starting parasitemia, 2% hematocrit; read-out: EC50 for inhibition of the asexual-stage P. falciparum (parasitemia rates)
Description: 3–5-day cultured P. falciparum-infected red blood cells (iRBCs) were mixed with fresh human red blood cells (RBCs) (AB+ type) in complete RPMI 1640 to prepare cultures with 0.5% parasitemia and 2% hematocrit. AST was dissolved in dimethyl sulfoxide (DMSO). Then, 5 μL DMSO with AST at concentrations of 0, 0.5, 1, 2, 4, and 8 mM were added to the 0.5 mL iRBCs in a 48-well plate, yielding final concentrations of 5, 10, 20, 40, and 80 µM, respectively. The plate was incubated in a candle jar at 37 °C. Approximately 48 h later, the medium was replaced with fresh medium containing the same concentration of AST. Parasitemia was recorded via microscopic evaluation of Giemsa-stained blood smears on day 4 post-incubation.

[2] = test system: Anopheles gambiae mosquitoes; assay: Mosquito mortality observed in SMFA (insecticidal activity); details: AST in blood meal
[3] = test system: P. falciparum transmission to Anopheles gambiae mosquitoes; assay: Transmission-blocking standard membrane feeding assay (SMFA), oocysts in mosquito midguts; assay type: in vivo, Plasmodium falciparum NF54; details: for Mean oocyst number per midgut: control 2.6; for Infect(%) percentage of infected mosquitoes: control 60
[4] = target: T1, P. falciparum GS-I (PfGS-I) (Plasmodium falciparum, UniProt W7JM41); assay: Glutamine synthetase assay, purified MBP-fused PfGS-I (Glutamine/Glutamate-GLO); assay type: biochemical, Plasmodium falciparum NF54
T1 sequence (W7JM41 1-544): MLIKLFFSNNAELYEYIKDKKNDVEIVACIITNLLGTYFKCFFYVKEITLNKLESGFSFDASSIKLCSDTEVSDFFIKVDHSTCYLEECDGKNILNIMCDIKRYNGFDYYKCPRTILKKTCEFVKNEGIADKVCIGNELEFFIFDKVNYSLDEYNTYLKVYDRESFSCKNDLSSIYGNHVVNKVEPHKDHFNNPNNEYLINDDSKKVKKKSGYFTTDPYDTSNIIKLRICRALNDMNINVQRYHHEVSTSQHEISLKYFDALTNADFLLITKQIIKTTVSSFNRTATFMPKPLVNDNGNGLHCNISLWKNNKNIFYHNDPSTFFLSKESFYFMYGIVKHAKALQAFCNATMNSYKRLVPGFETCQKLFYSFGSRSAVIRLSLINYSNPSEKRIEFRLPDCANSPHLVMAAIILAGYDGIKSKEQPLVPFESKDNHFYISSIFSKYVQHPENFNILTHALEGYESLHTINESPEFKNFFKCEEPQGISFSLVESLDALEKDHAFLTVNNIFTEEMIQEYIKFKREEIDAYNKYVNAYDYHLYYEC

[5] = test system: macrophage-like cells differentiated from THP-1
[6] = test system: human cell lines (HepG2, HEK293, Caco-2, THP-1, macrophage)
human GS-II (hGS-II) = target: T2, human GS-II (hGS-II) (Homo sapiens, UniProt P15104); assay: Glutamine synthetase assay, human GS-II (Glutamine/Glutamate-GLO); assay type: biochemical; details: 1 µM AST, 30 min, Figure 2b
T2 construct: purchased BioVision Inc., Milpitas, CA, USA
T2 sequence (P15104 whole entry): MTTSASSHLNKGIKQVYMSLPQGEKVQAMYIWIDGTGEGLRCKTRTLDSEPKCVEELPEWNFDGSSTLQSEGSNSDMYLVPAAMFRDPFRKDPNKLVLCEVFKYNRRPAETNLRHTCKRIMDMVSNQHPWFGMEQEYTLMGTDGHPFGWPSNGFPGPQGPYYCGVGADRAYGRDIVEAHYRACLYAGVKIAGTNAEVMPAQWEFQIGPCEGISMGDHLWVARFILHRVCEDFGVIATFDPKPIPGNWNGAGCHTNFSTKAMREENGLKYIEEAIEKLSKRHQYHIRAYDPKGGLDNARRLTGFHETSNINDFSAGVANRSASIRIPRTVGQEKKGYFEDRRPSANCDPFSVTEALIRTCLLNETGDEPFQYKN
Description: The activity and inhibition profiles of purified MBP-fused PfGS-I or human GS-II (hGS-II) (BioVision Inc., Milpitas, CA, USA) in the presence or absence of AST were estimated from glutamine production using Glutamine/Glutamate-GLO^TM Assay Kit (Promega, Madison, WI, USA). The assay mixture (50 mM imidazole-HCl buffer (pH 7.0), 7.6 mM ATP, 50 mM magnesium chloride, 50 mM ammonium chloride) with or without the indicated concentration of GS enzyme was preincubated in the presence or absence of the indicated concentrations of AST for 15 min at room temperature. The reaction was initiated through the addition of L-glutamate at 0.1 mM, the final concentration. The reaction mixtures were incubated at 37 °C with shaking at 300 rpm for the indicated time. The reactions were terminated by chilling the reaction mixture in ice water and filtered with 30 kDa Amicon Ultra centrifugal filters at 4 °C. Glutamate concentrations in the filtered samples were determined using a Glutamine/Glutamate-GLO^TM Assay as instructed in the kit’s manual, from which glutamine concentrations were estimated by subtracting the glutamate concentrations from the initial concentrations (0.1 mM). The EC50 (half maximal effective concentration) of AST for PfGS-I was calculated using Sigma Plot (Systat Software, Inc., Sun Jose, CA, USA).

## C[As](=O)(O)CC[C@H](N)C(=O)O [AST, 2-amino-4-(hydroxymethylarsinoyl)butanoate]
[1]
  pEC50: 4.86
Caco-2
  CC50: 150 to 200 µM
[2]
  insecticidal activity (dead mosquitoes): no dead mosquitoes were observed
[3]; 3 µM AST, SMFA
  inhibition of malaria transmission: completely inhibited
[3]; SMFA, day 7 post-infection, read-out: EC50 in blocking the transmission of the sexual-stage P. falciparum to mosquitos (oocysts per mosquito)
  pEC50: 6.47
[3]; [AST] 0.1 μM
  Mean oocyst number per midgut: 2.8
  Infect(%) percentage of infected mosquitoes: 59.6%
[3]; [AST] 0.3 μM
  Mean oocyst number per midgut: 1.4
  Infect(%) percentage of infected mosquitoes: 36.8%
[3]; [AST] 1 μM
  Mean oocyst number per midgut: 0.25
  Infect(%) percentage of infected mosquitoes: 20%
[3]; [AST] 3 μM
  Mean oocyst number per midgut: 0
  Infect(%) percentage of infected mosquitoes: 0%
[3]; [AST] 30 μM
  Mean oocyst number per midgut: 0
  Infect(%) percentage of infected mosquitoes: 0%
THP-1
  CC50: > 250 µM
[4]
  pEC50: 6.40
[4]; 1 µM AST, PfGS-I 1 µM, 30 min, Figure 2b
  activity of PfGS-I compared with the control without AST treatment: less than 40%
[4]; AST at 100 µM, Figure 2c
  inhibition of PfGS-I activity: completely inhibited
[5]
  CC50: > 250 µM
[6]
  permeability (total cellular arsenic levels): permeable
Human GS-II (hGS-II)
  effect on activity of hGS-II: did not significantly reduce
HepG2
  CC50: > 250 µM
HEK293
  CC50: > 250 µM
  cytotoxicity relative to As(III) (times less cytotoxic): > 10 times

From paper PMC10222646 (Microorganisms, 2023)
